This note sets out measurements from paper PMC3804415 (Bioorganic & medicinal chemistry, 2013).

SMILES strings stand for the structures.

The experiment deals with T1, human QR2 (Homo sapiens, UniProt P16083).
T1 sequence (P16083 1-231): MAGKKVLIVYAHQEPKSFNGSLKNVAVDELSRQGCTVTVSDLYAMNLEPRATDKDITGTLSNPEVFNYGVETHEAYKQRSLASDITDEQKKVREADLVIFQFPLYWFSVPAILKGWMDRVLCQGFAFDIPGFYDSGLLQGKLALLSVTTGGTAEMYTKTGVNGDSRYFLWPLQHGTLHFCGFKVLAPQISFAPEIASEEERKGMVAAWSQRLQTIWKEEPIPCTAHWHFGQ
The experiment in a line: Steady-state kinetic assay of QR2 inhibition. The note with it: for inhibition at 100 µM: read-out: average percent inhibition of QR2; for average percent inhibition of QR2: at 100 μM inhibitor. The format is biochemical.

Consider `CC(C)Oc1cc(/C=C(\C#N)c2ccc(O)cc2)cc(OC(C)C)c1` [Analogue 4a, (Z)-3-(3,5-diisopropoxyphenyl)-2-(4-hydroxyphenyl)acrylonitrile], for which the inhibition at 100 µM is ≤ 20%.
With `COc1ccc(/C(C#N)=C/c2cc(OC(C)C)cc(OC(C)C)c2)cc1` [Analogue 4c, (Z)-3-(3,5-diisopropoxyphenyl)-2-(4-methoxyphenyl)acrylonitrile], the inhibition at 100 µM was ≤ 20%.
As for `CN(C)c1ccc(NC(=O)c2ccc(O)cc2)cc1` [Analogue 8f, N-(4-(dimethylamino)phenyl)-4-hydroxybenzamide], the “average percent inhibition of QR2” value is recorded as “eliminates inhibition of QR2”.
For `CN(C)c1ccc(C(=O)Nc2cc(O)cc(O)c2)cc1` [Analogue 8k, N-(3,5-dihydroxyphenyl)-4-(dimethylamino)benzamide], the “average percent inhibition of QR2” value is “eliminates inhibition of QR2”.
Still for that read-out and setting: for `COc1cc(OC)cc(C(=O)Nc2ccc3ccccc3c2)c1` [Analogue 8p, 3,5-dimethoxy-N-(naphthalen-2-yl)benzamide] the value was “no inhibition of QR2”.
